Measured values: patent US11432549B2, “Carbamoyl triazolinone based herbicide combinations and method of use” (Arysta LifeScience Corporation, priority 2009, dated 2022)
Where two headings read alike, the source gives them in different places.

Experiments:
Green Foxtail = assay: Ex 5/7 greenhouse spray, bleaching/injury ratings; assay type: in vivo; details: Green Foxtail
Method: (§1) Containers were watered as needed based on species and water usage. The greenhouse was heated to keep temperatures above 50° F. (10° C.) and ventilated as needed to keep temperatures below 100° F. (38° C.). Typical daytime temperatures in the greenhouse were 80-90° F. (27-32° C.) and nighttime temperatures were between 50-60° F. (10-16° C.). The soil employed was Promix BX potting soil. Overall moisture conditions were normal and the closest weather station was on-site. Conditions and equipment employed in this Example are tabulated below in Tables 5-1 and 5-2.
(§2) All containers were moved outdoors from the greenhouse and arranged in blocks by treatment for the herbicide applications. A single spray application was applied to each block containing four repetitions of each species for each treatment. Plants were then immediately returned to the greenhouse and irrigated with approximately ¼″ water 1-3 hrs after treatment with a hose end sprayer. Only the Poa plants were trimmed with scissors two days prior to treatment at a height of approximately 3 inches.
(§3) Referring to FIGS. 2A-B, 3A-C, 4A-C, and 5A-D, all ratings of injury or bleaching are based on a scale from 1 to 9. […] Any bleaching measurement 4 and above was considered unacceptable for desirable turf species. In injury measurements, 1 indicates no injury while 9 indicates a dead plant. Any injury measurement 4 and above was considered unacceptable for desirable turf species). Density correlates with percent cover where 1 indicates no grass while 9 indicates a full pot.
(§4) Replications employed include 4, Untreated treatments: 1, Design: Randomized Complete Block, Treatment units: US standard, Treated plot size Width: 4 feet, Treated plot size Length: 4 feet, Application volume: 50 gal/ac, Mix size: 0.5562 liters, Mix overage: 100%, Format definitions: G-All7.DEF, G-All7.FRM.
(§5) In evaluating synergism, the data from Example 5 above were converted to % of control. This was done based on the data provided on a 1-9 scale detailed in Example 5. Expected values were computed from the % of control data by the formula for expected control=[…], where A is the % of control value for herbicide A alone and B is the % of control value for herbicide B alone.

Poa annua = assay: Ex 5/7 greenhouse spray, bleaching/injury ratings; assay type: in vivo; details: Poa
Method: as §1, §2
(§6) Transplanted tillering Kentucky Bluegrass was 5 to 6 months old, transplanted Poa annua was 5 to 6 months old. Tall fescue was seeded into the crabgrass pots. St. Augustine plants (Floratam and Saphire) were shipped from Port St. Lucie, Fla. Only two replicates of Saphire St. Augustine grass were used due to plant availability.
as §3, §4, §5

Crabgrass sp. = assay: Ex 5/7 greenhouse spray, bleaching/injury/density ratings; assay type: in vivo; details: Crabgrass
Method: as §1, §2, §6, §3, §4, §5

St. Augustine-Floratum = details: St. Augustine Floratam
Method: as §1, §2, §6, §3, §4, §5

St. Augustine-Sapphire = details: in vivo
Method: as §1, §2, §6, §3, §4, §5

Digitaria ciliaris = assay: Ex 1 pot test, visual % damage; assay type: in vivo
[1] = Days After First/Last Applic. 41 41, Trt-Eval Interval 31 DA-A

With `CC(C)c1nn(C(=O)NC(C)(C)C)c(=O)n1N` [3 Amicarbazone] the Injury (Green Foxtail; 6 DA-A) was 3.8 de, the Injury (Green Foxtail; 7 DA-A) was 3.5 b and the Bleaching (Green Foxtail; 10 DA-A) was 1.0 c. The Bleaching (Green Foxtail; 14 DA-A) was 1, the Injury (Green Foxtail; 14 DA-A) was 2.5 f and the Bleaching (Green Foxtail; 16 DA-A) was 1. For the same molecule, the Injury (Green Foxtail; 16 DA-A) was 2.8 cd, the Bleaching (Green Foxtail; 20 DA-A) was 1.3 c and the Injury (Green Foxtail; 20 DA-A) was 3.5 cd. For the same molecule, the Injury (Green Foxtail; 24 DA-A) was 3.8 c, the Bleaching (Green Foxtail; 31 DA-A) was 3.3 a and the Injury (Green Foxtail; 31 DA-A) was 5.3 bc. It also gave a Bleaching (Poa annua; 6 DA-A) of 1.0 a, a Bleaching (Poa annua; 7 DA-A) of 1.0 a and an Injury (Poa annua; 10 DA-A) of 3.5 bc. For the same molecule, the Bleaching (Poa annua; 14 DA-A) was 1.8 b, the Injury (Poa annua; 14 DA-A) was 4.8 b and the Bleaching (Poa annua; 16 DA-A) was 2.0 ab. For the same molecule, the Injury (Poa annua; 16 DA-A) was 5.0 bc, the Bleaching (Poa annua; 20 DA-A) was 2.0 a and the Injury (Poa annua; 20 DA-A) was 5.5 c. The Injury (Poa annua; 24 DA-A) was 5.3 b, the Injury (Poa annua; 31 DA-A) was 7.0 ab and the Injury (Poa annua; [1]) was 7.5 ab. For the same molecule, the Bleaching (Crabgrass sp.; 6 DA-A) was 1.0 f, the Injury (Crabgrass sp.; 6 DA-A) was 1 and the Bleaching (Crabgrass sp.; 7 DA-A) was 1.0 c. It also gave an Injury (Crabgrass sp.; 7 DA-A) of 1.0 e, a Bleaching (Crabgrass sp.; 10 DA-A) of 1.0 c and a Bleaching (Crabgrass sp.; 14 DA-A) of 1.0 c. The Injury (Crabgrass sp.; 14 DA-A) was 1, the Bleaching (Crabgrass sp.; 16 DA-A) was 1.0 c and the Injury (Crabgrass sp.; 16 DA-A) was 1.5. For the same molecule, the Bleaching (Crabgrass sp.; 20 DA-A) was 1, the Injury (Crabgrass sp.; 20 DA-A) was 1.5 c and the “% Crab Cvr” value (Crabgrass sp.; 24 DA-A) was 6.3 b %. The Injury (Crabgrass sp.; 24 DA-A) was 1.5 c, the “% Crab Cvr” value (Crabgrass sp.; 31 DA-A) was 6.3 b % and the Bleaching (Crabgrass sp.; 31 DA-A) was 1.0 b. For the same molecule, the “% Crab Cvr” value (Crabgrass sp.; 41 DA-A) was 6.8 b %, the Bleaching (Crabgrass sp.; 41 DA-A) was 1.0 a and the Bleaching (St. Augustine-Floratum; 6 DA-A) was 1.0 a. The Bleaching (St. Augustine-Floratum; 7 DA-A) was 1.0 c, the Bleaching (St. Augustine-Floratum; 10 DA-A) was 1.0 c and the Bleaching (St. Augustine-Floratum; 14 DA-A) was 1.0 c. For the same molecule, the Bleaching (St. Augustine-Floratum; 16 DA-A) was 1.3 e, the Bleaching (St. Augustine-Floratum; 20 DA-A) was 1.3 b and the Bleaching (St. Augustine-Floratum; 31 DA-A) was 1.0 c. For the same molecule, the Bleaching (St. Augustine-Floratum; [1]) was 1.0 a, the TurfQuality (St. Augustine-Floratum; [1]) was 7.3 ab and the TurfQuality (St. Augustine-Sapphire) was 7.5 a.
`CCc1cccc(C)c1N(COC(C)C)C(=O)CCl` [Propisochlor, 2-chloro-N-(2-ethyl-6-methylphenyl)-N-[(1-methylethoxy)methyl]acetamide] was tested, and the weeding effect index (Digitaria ciliaris; 5 DAT, all tested dose rate, one-leaf stage) was “less than 50%”, the percentage control (Digitaria ciliaris; single application 50 g/ha, 5 DAT) was 28% and the percentage control (Digitaria ciliaris; single application 50 g/ha, 8 DAT) was 70%. The percentage control (Digitaria ciliaris; single application 50 g/ha, 14 DAT) was 76%, the percentage control (Digitaria ciliaris; single application 50 g/ha, 21 DAT) was 88% and the percentage control (Digitaria ciliaris; single application 50 g/ha, 28 DAT) was 82%. For the same molecule, the percentage control (Digitaria ciliaris; single application 100 g/ha, 5 DAT) was 42%, the percentage control (Digitaria ciliaris; single application 100 g/ha, 8 DAT) was 78% and the percentage control (Digitaria ciliaris; single application 100 g/ha, 14 DAT) was 86%. The percentage control (Digitaria ciliaris; single application 100 g/ha, 21 DAT) was 94%, the percentage control (Digitaria ciliaris; single application 100 g/ha, 28 DAT) was 92% and the percentage control (Digitaria ciliaris; single application 200 g/ha, 5 DAT) was 44%. For the same molecule, the percentage control (Digitaria ciliaris; single application 200 g/ha, 8 DAT) was 80%, the percentage control (Digitaria ciliaris; single application 200 g/ha, 14 DAT) was 90% and the percentage control (Digitaria ciliaris; single application 200 g/ha, 21 DAT) was 98%. The percentage control (Digitaria ciliaris; single application 200 g/ha, 28 DAT) was 98%.
